Experimental data: patent publication US9879243B2, “Culture medium for cell growth and transfection” (LIFE TECHNOLOGIES CORPORATION, priority 2001, dated 2018)

Experiments:
[1] = system: CHO cells; test: Effect of replacement compounds on the growth of CHO cells in CD CHO medium without transferrin, three passages; type: cell-based, Chinese hamster; conditions: third passage
Method in brief: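 CHO cells seeded at 1×10^5 viable cells/mL in transferrin-free CD CHO medium, 37 °C, 8% CO2, subcultured every 4 days for three passages. Compounds tested alone or complexed with ferric chloride or ferrous sulfate at 25, 50 and 100 μM; growth as mean percentage of the 5 μg/mL holo-transferrin control at the third passage, duplicate cultures.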

[2] = system: 293 cells; test: Effect of replacement compounds on the growth of 293 cells in 293 SFM without transferrin, three passages; type: cell-based, human; conditions: third passage, control 5 μg/mL human holo-transferrin
[3] = system: 293 cells; test: β-galactosidase expression after transfection (pCMV-SPORT-β-gal, LIPOFECTAMINE 2000) of 293 cells in monolayer culture, 24-well plates; type: cell-based, human; conditions: Table 8, replacement compounds 25 μM in test media, 24 hrs post-transfection
Protocol: When cultured in suspension, cells were split to 3×10^5 viable cells per ml at each passage. On the week of transfection cells were seeded at 3×10^5 viable cells per ml. After ˜48 hrs of growth (day 2) cells were vortexed for 30 seconds and counted and appropriate volumes used for transfection as described in procedures below.
In addition, the base media comprises 2.4 g/L NaHCO3, 2.98 g/L Hepes, 4 mM L-glutamine and 3 ml/L PLURONIC F-68 (Invitrogen Corp., Carlsbad, Calif.).
The osmolarity is adjusted to from about 275-310 mOsm, preferably about 280 mOsm and the pH is adjusted to from about 7.0 to about 7.45 preferably about 7.4 respectively.
Three wells were set up for each treatment. A volume of media corresponding to 3×10^6 viable cells was centrifuged. The supernatant was removed and the cells re-suspended in 600 μl test media. Each well of a 24 well plate received 200 μl of the re-suspended cells.
To prepare the nucleic acid for the transfection experiments, 93 μl test media+3 μl DNA+24 μl LIPOFECTAMINE 2000 were combined in a microfuge tube and complexed for 30 minutes. A 40 μl aliquot of complex was added to each well. 250 μl test media was added to each well five hours after addition of complex. The final cell concentration was 1×10^6 viable cells per well; the final DNA concentration was 1 μg per 1×10^6 viable cells and the final LIPOFECTAMINE 2000 concentration was 8 μl per 1×10^6 viable cells.
24 hrs post-transfection, samples were collected for β-galactosidase quantitation. The contents of duplicate wells were pooled (i.e. ˜2×10^6 cells for the assay) for each sample and transferred to a microfuge tube. The cells were centrifuged, the supernatant was removed and the cells were re-suspended in 1 ml of D-PBS. The cells were pelleted a second time and re-suspended in 1 ml of D-PBS. The samples were then stored at −70° C. Prior to the assay for β-galactosidase, samples were freeze-thawed a total of five times.
293 cells were grown in monolayer culture in the presence of the various replacement compounds indicated and transfection experiments performed as described above. The results are shown in Table 8 and the values are β-galactosidase activity expressed as nanograms of β-galactosidase per 2×10^6 cells. A comparison was made between the transfection efficiency of DNA complexes formed in D-MEM medium and DNA complexes formed in test medium. […]
For cells transfected in 24-well plates, cells densities used were 1×10^6 viable cells per well.

[4] = system: Sp2/0 cells; test: Effect of replacement compounds on the growth of Sp2/0 cells in CD Hybridoma medium without transferrin, three passages; type: cell-based; conditions: third passage
[5] = 25 μM, control 5 μg/mL human holo-transferrin
[6] = 25 μM, iron equimolar where combined

Compound | mean percentage of control growth [1, 5] | mean percentage of control growth ([1]; 50 μM) | mean percentage of control growth ([1]; 100 μM) | mean percentage of control growth [2, 6] | mean percentage of control growth ([2]; 50 μM) | mean percentage of control growth ([2]; 100 μM) | β-galactosidase activity; D-MEM used for complexing, Test media to re-suspend cells [3] | β-galactosidase activity; Test Media used for complexing and to re-suspend cells [3] | mean percentage of control growth [4, 5] | mean percentage of control growth ([4]; 50 μM) | mean percentage of control growth ([4]; 100 μM)
[Cl][Fe]([Cl])[Cl] [Ferric Chloride, reference compound] | 56 percentage of control growth | 85 percentage of control growth | 101 percentage of control growth | 87 percentage of control growth | 91 percentage of control growth | 109 percentage of control growth | 18 nanograms of β-galactosidase per 2×10^6 cells | 0 nanograms of β-galactosidase per 2×10^6 cells | 55 percentage of control growth | 73 percentage of control growth | 74 percentage of control growth
Nitriloacetic Acid•Ferric Chloride | 127 percentage of control growth | 107 percentage of control growth | 107 percentage of control growth | 100 percentage of control growth | 118 percentage of control growth | 74 percentage of control growth | 45 nanograms of β-galactosidase per 2×10^6 cells | 33 nanograms of β-galactosidase per 2×10^6 cells | 88 percentage of control growth | 87 percentage of control growth | 70 percentage of control growth
O=S(=O)([O-])[O-].[Fe+2] [Ferrous Sulfate, reference compound] | 88 percentage of control growth | 79 percentage of control growth | 38 percentage of control growth | 71 percentage of control growth | 60 percentage of control growth | 41 percentage of control growth | 258 nanograms of β-galactosidase per 2×10^6 cells | 406 nanograms of β-galactosidase per 2×10^6 cells | 91 percentage of control growth | 103 percentage of control growth | 94 percentage of control growth
